These results are taken from patent US20240409585A1, “MACROCYCLIC IMMUNOMODULATORS” (priority 2021, published 2024).

Bridge positions count the residues as written; N and C are the ends. Square brackets hold non-standard residues; d marks the D form. Peptide text beside a SMILES is read from it. * marks the point of attachment. ξ: configuration not given here. Phe(4-CONH2) = NC(=O)c1ccc(C[C@H](N)C(=O)O)cc1; Phe(4-COOH) = N[C@@H](Cc1ccc(C(=O)O)cc1)C(=O)O; Bip = N[C@@H](Cc1ccc(-c2ccccc2)cc1)C(=O)O; Phe(3-Cl) = N[C@@H](Cc1cccc(Cl)c1)C(=O)O; Phe(3-OMe) = COc1cccc(C[C@H](N)C(=O)O)c1; Phe(3-Me) = Cc1cccc(C[C@H](N)C(=O)O)c1; dPhe(3-F) = N[C@H](Cc1cccc(F)c1)C(=O)O; Val(3-OH) = CC(C)(O)[C@H](N)C(=O)O; 4Pal = N[C@@H](Cc1ccncc1)C(=O)O; Cha = N[C@@H](CC1CCCCC1)C(=O)O; Cit = NC(=O)NCCC[C@H](N)C(=O)O; Ile(3ξ) = CCC(C)[C@H](N)C(=O)O; Thr(3ξ) = CC(O)[C@H](N)C(=O)O; NMeNle = CCCC[C@H](NC)C(=O)O; Carboxymethyl = O=C(O)C*; NMeA = CN[C@@H](C)C(=O)O; Orn = NCCC[C@H](N)C(=O)O; Dab = NCC[C@H](N)C(=O)O; Dap = NC[C@H](N)C(=O)O

For this experiment, the target named is T1, PE-labeled human PD-L1-Ig binding to Jurkat cell line over-expressing human PD-1 (Jurkat-PD-1) (Homo sapiens, UniProt Q15116).
T1 construct: expressed in transfected cells; host or cells: Jurkat
T1 sequence (Q15116 25-288): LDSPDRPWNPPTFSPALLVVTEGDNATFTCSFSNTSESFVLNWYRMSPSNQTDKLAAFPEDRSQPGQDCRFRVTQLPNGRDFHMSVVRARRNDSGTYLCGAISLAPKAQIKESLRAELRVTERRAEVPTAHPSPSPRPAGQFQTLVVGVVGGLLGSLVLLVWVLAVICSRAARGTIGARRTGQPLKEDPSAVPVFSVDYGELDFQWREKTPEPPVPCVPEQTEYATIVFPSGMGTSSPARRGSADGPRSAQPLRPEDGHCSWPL
Briefly: Jurkat-PD-1 Cell Binding High-Content Screening Assay (CBA): Method 1. To be noted: Jurkat-hPD-1 cells, PE-labeled PD-L1-Ig 20 nM final; read-out: Jurkat HPDL1 PD1 IC50 (uM) (Method 1).
`CC(C)C[C@@H]1NC(=O)[C@H](C)NC(=O)[C@@H](C)NC(=O)[C@H](C)N(C)C(=O)[C@H](C(C)C)NC(=O)[C@H](Cc2ccc(-c3ccccc3)cc2)NC(=O)[C@H](CC(C)C)NC(=O)[C@H](Cc2c[nH]c3ccccc23)NC(=O)[C@H](CC(=O)O)NC(=O)[C@H](Cc2ccc(O)cc2)NC(=O)[C@H](Cc2ccccc2)NC(=O)CSC[C@@H](C(=O)N[C@@H](C)C(N)=O)NC(=O)[C@H](CO)NC(=O)[C@H](C(C)C)NC1=O` [Compound 1733] ({CH2CO}-FYDWL[Bip]V[NMeA][dA]ALVSCA-NH2; thioether N-14): the IC50 came to 0.01 µM.

Turning to `CC[C@H](C)[C@@H]1NC(=O)[C@H](Cc2ccc(-c3ccccc3)cc2)NC(=O)[C@H](C(C)(C)O)NC(=O)[C@H](Cc2cccc(C)c2)NC(=O)[C@H](CC(=O)O)NC(=O)[C@H](Cc2ccc(O)cc2)NC(=O)[C@H](CC(N)=O)NC(=O)CSC[C@@H](C(=O)N[C@@H](CCN)C(N)=O)NC(=O)[C@H]([C@@H](C)O)NC(=O)[C@H](C(C)(C)O)NC(=O)[C@H](CC2CCCCC2)NC(=O)[C@H](CCN)NC(=O)[C@@H](CC(C)C)NC(=O)[C@H](C)N(C)C1=O` [Compound 1693] ({CH2CO}-NYD[Phe(3-Me)][Val(3-OH)][Bip]I[NMeA][dL][Dab][Cha][Val(3-OH)]TC[Dab]-NH2; thioether N-14), the IC50 amounted to 0.02 µM. To `CC(C)C[C@@H]1NC(=O)[C@H](CCN)NC(=O)[C@@H](CC(C)C)NC(=O)[C@H](C)N(C)C(=O)[C@H](C(C)C)NC(=O)[C@H](Cc2ccc(-c3ccccc3)cc2)NC(=O)[C@H](C(C)C)NC(=O)[C@H](Cc2c[nH]c3ccccc23)NC(=O)[C@H](CC(=O)O)NC(=O)[C@H](Cc2cccc(Cl)c2)NC(=O)[C@H](CN)NC(=O)CSC[C@@H](C(=O)N[C@@H](C)C(N)=O)NC(=O)[C@H]([C@@H](C)O)NC(=O)[C@H](C(C)C)NC1=O` [Compound 1441] ({CH2CO}-[Dap][Phe(3-Cl)]DWV[Bip]V[NMeA][dL][Dab]LVTCA-NH2; thioether N-14) belongs 0.09 µM; to `CCCC[C@H]1C(=O)N[C@H](C)C(=O)N[C@@H](CCN)C(=O)N[C@@H](CC2CCCCC2)C(=O)N[C@@H](C(C)C)C(=O)N[C@@H](CO)C(=O)N[C@H](C(=O)N[C@@H](CC(N)=O)C(N)=O)CSCC(=O)N[C@@H](Cc2ccncc2)C(=O)N[C@@H](Cc2ccc(C(=O)O)cc2)C(=O)N[C@@H](CC(=O)O)C(=O)N[C@@H](Cc2c[nH]c3ccccc23)C(=O)N[C@@H](C(C)C)C(=O)N[C@@H](Cc2ccc(-c3ccccc3)cc2)C(=O)N[C@@H](CCCN)C(=O)N1C` [Compound 2090] ({CH2CO}-[4Pal][Phe(4-COOH)]DWV[Bip][Orn][NMeNle][dA][Dab][Cha]VSCN-NH2; thioether N-14), 0.14 µM. Regarding `CC(C)C[C@@H]1NC(=O)[C@H](CC(N)=O)NC(=O)[C@@H](CC(C)C)NC(=O)[C@H](C)N(C)C(=O)[C@H](CCCNC(N)=O)NC(=O)[C@H](Cc2ccc(-c3ccccc3)cc2)NC(=O)[C@H](C(C)C)NC(=O)[C@H](Cc2c[nH]c3ccccc23)NC(=O)[C@H](CC(=O)O)NC(=O)[C@H](Cc2ccc(O)cc2)NC(=O)[C@H](Cc2ccccc2)NC(=O)CSC[C@@H](C(=O)N[C@@H](C)C(=O)N[C@@H](CCCN)C(=O)O)NC(=O)[C@H](CO)NC(=O)[C@H](C(C)C)NC1=O` [Compound 2237] ({CH2CO}-FYDWV[Bip][Cit][NMeA][dL]NLVSCA[Orn]-OH; thioether N-14), the IC50 was 0.01 µM. To `Cc1cccc(C[C@@H]2NC(=O)[C@H](CC(=O)O)NC(=O)[C@H](Cc3ccncc3)NC(=O)[C@H](CN)NC(=O)CSC[C@@H](C(N)=O)NC(=O)[C@H](CO)NC(=O)[C@H](C(C)C)NC(=O)[C@H](CC(C)C)NC(=O)[C@H](CC(N)=O)NC(=O)[C@@H](CC(C)C)NC(=O)[C@H](C)N(C)C(=O)[C@H](C(C)C)NC(=O)[C@H](Cc3ccc(-c4ccccc4)cc3)NC(=O)[C@H](CC(C)C)NC2=O)c1` [Compound 1598] ({CH2CO}-[Dap][4Pal]D[Phe(3-Me)]L[Bip]V[NMeA][dL]NLVSC-NH2; thioether N-14) belongs 0.01 µM. Regarding `CC[C@H](C)[C@@H]1NC(=O)[C@H](Cc2ccc(-c3ccccc3)cc2)NC(=O)[C@H](C(C)C)NC(=O)[C@H](Cc2c[nH]c3ccccc23)NC(=O)[C@H](CC(=O)O)NC(=O)[C@H](Cc2ccc(C(=O)O)cc2)NC(=O)[C@H](Cc2ccncc2)NC(=O)CSC[C@@H](C(=O)N[C@@H](C)C(N)=O)NC(=O)[C@H]([C@@H](C)O)NC(=O)[C@H](C(C)C)NC(=O)[C@H](CC(C)C)NC(=O)[C@H](CCN)NC(=O)[C@@H](CC(C)C)NC(=O)[C@H](C)N(C)C1=O` [Compound 1411] ({CH2CO}-[4Pal][Phe(4-COOH)]DWV[Bip]I[NMeA][dL][Dab]LVTCA-NH2; thioether N-14), the IC50 was found to be 0.02 µM. To `CCC(C)[C@@H]1NC(=O)[C@H](Cc2ccc(-c3ccccc3)cc2)NC(=O)[C@H](C(C)C)NC(=O)[C@H](Cc2c[nH]c3ccccc23)NC(=O)[C@H](CC(=O)O)NC(=O)[C@H](Cc2ccc(O)cc2)NC(=O)[C@H](CCN)NC(=O)CSC[C@@H](C(=O)N[C@H](C(N)=O)C(C)C)NC(=O)[C@H](C(C)O)NC(=O)[C@H](C(C)(C)O)NC(=O)[C@H](CC2CCCCC2)NC(=O)[C@H](CC(N)=O)NC(=O)[C@@H](CC(C)C)NC(=O)[C@H](C)N(C)C1=O` (stereo partly drawn) [Compound 2173] ({CH2CO}-[Dab]YDWV[Bip][Ile(3ξ)][NMeA][dL]N[Cha][Val(3-OH)][Thr(3ξ)]CV-NH2; thioether N-14) belongs 0.19 µM. To `COc1cccc(C[C@@H]2NC(=O)[C@H](CN)NC(=O)CSC[C@@H](C(=O)N[C@@H](C)C(N)=O)NC(=O)[C@H]([C@@H](C)O)NC(=O)[C@H](C(C)C)NC(=O)[C@H](CC(C)C)NC(=O)[C@H](CCN)NC(=O)[C@@H](CC(C)C)NC(=O)[C@H](C)N(C)C(=O)[C@H](Cc3cnc[nH]3)NC(=O)[C@H](Cc3ccc(-c4ccccc4)cc3)NC(=O)[C@H](C(C)C)NC(=O)[C@H](Cc3c[nH]c4ccccc34)NC(=O)[C@H](CC(=O)O)NC2=O)c1` [Compound 1423] ({CH2CO}-[Dap][Phe(3-OMe)]DWV[Bip]H[NMeA][dL][Dab]LVTCA-NH2; thioether N-14) belongs 0.07 µM; to `CC(C)C[C@@H]1NC(=O)[C@H](Cc2c[nH]c3ccccc23)NC(=O)[C@H](CC(=O)O)NC(=O)[C@H](Cc2ccc(O)cc2)NC(=O)[C@H](CC(N)=O)NC(=O)CSC[C@@H](C(=O)N[C@@H](C)C(N)=O)NC(=O)[C@H](CO)NC(=O)[C@H](C(C)C)NC(=O)[C@H](CC(C)C)NC(=O)[C@H](CCN)NC(=O)[C@@H](C)NC(=O)[C@H](C)N(C)C(=O)[C@H](CCCNC(=N)N)NC(=O)[C@H](Cc2ccc(-c3ccccc3)cc2)NC1=O` [Compound 1758] ({CH2CO}-NYDWL[Bip]R[NMeA][dA][Dab]LVSCA-NH2; thioether N-14), 0.03 µM; to `CC(C)C[C@H]1NC(=O)[C@H](C)N(C)C(=O)[C@H](C(C)C)NC(=O)[C@H](Cc2ccc(-c3ccccc3)cc2)NC(=O)[C@H](C(C)C)NC(=O)[C@H](Cc2c[nH]c3ccccc23)NC(=O)[C@H](CC(=O)O)NC(=O)[C@H](Cc2ccc(O)cc2)NC(=O)[C@H](Cc2ccc(OCC(=O)O)cc2)NC(=O)CSC[C@@H](C(=O)N[C@@H](C)C(N)=O)NC(=O)[C@H]([C@@H](C)O)NC(=O)[C@H](C(C)C)NC(=O)[C@H](CC2CCCCC2)NC(=O)[C@H](CCN)NC1=O` [Compound 1507] ({CH2CO}-Y(Carboxymethyl)YDWV[Bip]V[NMeA][dL][Dab][Cha]VTCA-NH2; thioether N-14), 0.01 µM. For `Cc1cccc(C[C@@H]2NC(=O)[C@H](CC(=O)O)NC(=O)[C@H](Cc3ccc(OCC(=O)O)cc3)NC(=O)[C@H](Cc3ccc(OCC(=O)O)cc3)NC(=O)CSC[C@@H](C(N)=O)NC(=O)[C@H](CCCN)NC(=O)[C@H](C(C)C)NC(=O)[C@H](CC3CCCCC3)NC(=O)[C@H](CCN)NC(=O)[C@@H](CC(C)C)NC(=O)[C@H](C)N(C)C(=O)[C@H](Cc3ccc(OCC(=O)O)cc3)NC(=O)[C@H](Cc3ccc(-c4ccccc4)cc3)NC(=O)[C@H](Cc3ccc(OCC(=O)O)cc3)NC2=O)c1` [Compound 1652] ({CH2CO}-Y(Carboxymethyl)Y(Carboxymethyl)D[Phe(3-Me)]Y(Carboxymethyl)[Bip]Y(Carboxymethyl)[NMeA][dL][Dab][Cha]V[Orn]C-NH2; thioether N-14), the IC50 came to 0.03 µM. Under `CCC(C)[C@@H]1NC(=O)[C@H](Cc2ccc(-c3ccccc3)cc2)NC(=O)[C@H](C(C)C)NC(=O)[C@H](Cc2c[nH]c3ccccc23)NC(=O)[C@H](CC(=O)O)NC(=O)[C@H](Cc2ccc(O)cc2)NC(=O)[C@H](Cc2ccncc2)NC(=O)CSC[C@@H](C(=O)N[C@@H](CC(=O)O)C(=O)N[C@@H](CCN)C(=O)O)NC(=O)[C@H](C(C)O)NC(=O)[C@H](C(C)C)NC(=O)[C@H](CC2CCCCC2)NC(=O)[C@H](CC(N)=O)NC(=O)[C@@H](CC(C)C)NC(=O)[C@H](C)N(C)C1=O` (stereo partly drawn) [Compound 2001] ({CH2CO}-[4Pal]YDWV[Bip][Ile(3ξ)][NMeA][dL]N[Cha]V[Thr(3ξ)]CD[Dab]-OH; thioether N-14) stands 0.11 µM. To `CC(C)C[C@@H]1NC(=O)[C@H](Cc2c[nH]c3ccccc23)NC(=O)[C@H](CC(=O)O)NC(=O)[C@H](Cc2ccc(C(N)=O)cc2)NC(=O)[C@H](Cc2ccccc2)NC(=O)CSC[C@@H](C(=O)N[C@@H](C)C(N)=O)NC(=O)[C@H](CO)NC(=O)[C@H](C(C)C)NC(=O)[C@H](CC(C)C)NC(=O)[C@H](CC(N)=O)NC(=O)[C@@H](C)NC(=O)[C@H](C)N(C)C(=O)[C@H](C(C)C)NC(=O)[C@H](Cc2ccc(-c3ccccc3)cc2)NC1=O` [Compound 1740] ({CH2CO}-F[Phe(4-CONH2)]DWL[Bip]V[NMeA][dA]NLVSCA-NH2; thioether N-14) belongs 0.02 µM. Turning to `CC(C)C[C@@H]1NC(=O)[C@H](CCCNC(=N)N)NC(=O)[C@@H](Cc2cccc(F)c2)NC(=O)[C@H](C)N(C)C(=O)[C@H](CCCNC(=N)N)NC(=O)[C@H](Cc2ccc(-c3ccccc3)cc2)NC(=O)[C@H](C(C)C)NC(=O)[C@H](Cc2c[nH]c3ccccc23)NC(=O)[C@H](CC(=O)O)NC(=O)[C@H](Cc2ccc(O)cc2)NC(=O)[C@H](Cc2ccccc2)NC(=O)CSC[C@@H](C(=O)N[C@@H](C)C(N)=O)NC(=O)[C@H]([C@@H](C)O)NC(=O)[C@H](C(C)C)NC1=O` [Compound 1071] ({CH2CO}-FYDWV[Bip]R[NMeA][dPhe(3-F)]RLVTCA-NH2; thioether N-14), the IC50 came out at 0.13 µM.

In general, IC50 refers to the concentration that gives 50% inhibition.
